Measurements from US20230159496A1, “COMPOUNDS AND METHODS FOR MODULATING SPLICING” (REMIX THERAPEUTICS INC., priority 2020, published 2023).
Counter-ions that a name gives are not always drawn. Like-named read-outs stand apart in the source and are kept apart here.

Experiments:
Type in all cases: cell-based
HTT CJ mRNA = experiment: Gene panel canonical junction qPCR assay, HTT; conditions: decrease in CJ mRNA levels, gene panel; read-out: HTT IC50
Method: (§1) The expression of a target mRNA was measured by detecting the formation of an exon-exon junction in the canonical transcript (CJ). A compound mediated exon-inclusion event was detected by observing an increase in formation of a new junction with an alternative exon (AJ). Real-time qPCR assays were used to detect these splicing switches and interrogate the potency of various compounds towards different target genes. A high-throughput real time quantitative PCR (RT-qPCR) assay was developed to measure these two isoforms of the mRNA (CJ and AJ) for an exemplary gene, HTT, together with a control housekeeping gene, GAPDH or GUSB or PPIA, used for normalization. Briefly, the A673 or K562 cell line was treated with various compounds described herein (e.g., compounds of Formula (I)). After treatment, the levels of the HTT mRNA targets were determined from each sample of cell lysate by cDNA synthesis followed by qPCR. The A673 cell line was cultured in DMEM with 10% FBS. Cells were diluted with full growth media and plated in a 96-well plate (15,000 cells in 100 ul media per well). The plate was incubated at 37° C. with 5% CO2 for 24 hours to allow cells to adhere. An 11-point 3-fold serial dilution of the compounds was made in DMSO then diluted in media in an intermediate plate. Compounds were transferred from the intermediate plate to the cell plate with the top dose at a final concentration of 10 uM in the well. Final DMSO concentration was kept at or below 0.25%. The cell plate was returned to the incubator at 37° C. with 5% CO2 for an additional 24 hours. The K562 cell line was cultured in IMDM with 10% FBS. For K562, cells were diluted with full growth media and plated in either a 96-well plate (50,000 cells in 50 uL media per well) or a 384-well plate (8,000-40,000 cells in 45 uL media per well). An 11-point 3-fold serial dilution of the compounds were made in DMSO then diluted in media in an intermediate plate. Compound was transferred from the intermediate plate to the cell plate with the top dose at a final concentration of 10 uM in the well. Final DMSO concentration was kept at or below 0.25%. Final volume was 100 uL for 96-well plate and 50 uL for 384-well plate. The cell plate was then placed in an incubator at 37° C. with 5% CO2 for 24 hours. The cells were then gently washed with 50 uL-100 uL cold PBS before proceeding to addition of lysis buffer. 30 uL-50 uL of room temperature lysis buffer with DNAse I (and optionally RNAsin) was added to each well. Cells were shaken/mixed thoroughly at room temperature for 5-10 minutes for lysis to take place and then 3 uL-5 uL of room temperature stop solution was added and wells were shaken/mixed again. After 2-5 minutes, the cell lysate plate was transferred to ice for RT-qPCR reaction setup. The lysates could also be frozen at −80° C. for later use. In some cases, a direct lysis buffer was used. An appropriate volume of 3× lysis buffer (10 mM Tris, 150 mM NaCl, 1.5%-2.5% Igepal and 0.1-1 U/uL RNAsin, pH 7.4) was directly added to either K562 or A673 cells in media and mixed by pipetting 3 times. The plates were then incubated at room temperature with shaking/rocking for 20-50 minutes to allow for lysis to take place. After this time, the cell lysate plate was transferred to ice to set up for the RT-qPCR reactions. The lysates could also be frozen at −80° C. for later use. To set up 10 uL RT-qPCR reactions, cell lysates were transferred to 384-well qPCR plates containing the master mix according to the table below. The plates were sealed, gently vortexed, and spun down before the run. The volumes were adjusted accordingly in some instances where the reaction was carried in 20 uL. The table below summarizes the components of the RT-qPCR reactions: The RT-qPCR reaction was performed using a QuantStudio (ThermoFisher) under the following fast cycling conditions. All samples and standards were analyzed at least in duplicate.

HTT mRNA = experiment: Splicing assay (RT-qPCR) monitoring HTT canonical junction (CJ) and alternative junction (AJ) mRNA isoforms; conditions: A673 or K562 cells, 24 h treatment, top dose 10 uM
Method: Compounds described herein were used to modulate RNA transcript abundance in cells. The expression of a target mRNA was measured by detecting the formation of an exon-exon junction in the canonical transcript (CJ). A compound mediated exon-inclusion event was detected by observing an increase in formation of a new junction with an alternative exon (AJ). Real-time qPCR assays were used to detect these splicing switches and interrogate the potency of various compounds towards different target genes. A high-throughput real time quantitative PCR (RT-qPCR) assay was developed to measure these two isoforms of the mRNA (CJ and AJ) for an exemplary gene, HTT, together with a control housekeeping gene, GAPDH or GUSB or PPIA, used for normalization. Briefly, the A673 or K562 cell line was treated with various compounds described herein (e.g., compounds of Formula (I)). After treatment, the levels of the HTT mRNA targets were determined from each sample of cell lysate by cDNA synthesis followed by qPCR.
• Cells-to-CT 1-step kit: ThermoFisher A25602, Cells-to-CT lysis reagent: ThermoFisher 4391851C, TaqMan™ Fast Virus 1-Step Master Mix: ThermoFisher 4444436 • GAPDH: VIC-PL, ThermoFisher 4326317E (Assay: Hs99999905_m1)—used for K562/suspension cell lines • GUSB: VIC-PL, ThermoFisher 4326320E (Assay: Hs99999908_m1)—used for K562/suspension cell lines • PPIA: VIC-PL, ThermoFisher 4326316E (Assay: Hs99999904_m1) — used for A673/adherent cell lines
The A673 cell line was cultured in DMEM with 10% FBS. Cells were diluted with full growth media and plated in a 96-well plate (15,000 cells in 100 ul media per well). The plate was incubated at 37° C. with 5% CO2 for 24 hours to allow cells to adhere. An 11-point 3-fold serial dilution of the compounds was made in DMSO then diluted in media in an intermediate plate. Compounds were transferred from the intermediate plate to the cell plate with the top dose at a final concentration of 10 uM in the well. Final DMSO concentration was kept at or below 0.25%. The cell plate was returned to the incubator at 37° C. with 5% CO2 for an additional 24 hours.
The K562 cell line was cultured in IMDM with 10% FBS. For K562, cells were diluted with full growth media and plated in either a 96-well plate (50,000 cells in 50 uL media per well) or a 384-well plate (8,000-40,000 cells in 45 uL media per well). An 11-point 3-fold serial dilution of the compounds were made in DMSO then diluted in media in an intermediate plate. Compound was transferred from the intermediate plate to the cell plate with the top dose at a final concentration of 10 uM in the well. Final DMSO concentration was kept at or below 0.25%. Final volume was 100 uL for 96-well plate and 50 uL for 384-well plate. The cell plate was then placed in an incubator at 37° C. with 5% CO2 for 24 hours.
The cells were then gently washed with 50 uL-100 uL cold PBS before proceeding to addition of lysis buffer. 30 uL-50 uL of room temperature lysis buffer with DNAse I (and optionally RNAsin) was added to each well. Cells were shaken/mixed thoroughly at room temperature for 5-10 minutes for lysis to take place and then 3 uL-5 uL of room temperature stop solution was added and wells were shaken/mixed again. After 2-5 minutes, the cell lysate plate was transferred to ice for RT-qPCR reaction setup. The lysates could also be frozen at −80° C. for later use.
In some cases, a direct lysis buffer was used. An appropriate volume of 3× lysis buffer (10 mM Tris, 150 mM NaCl, 1.5%-2.5% Igepal and 0.1-1 U/uL RNAsin, pH 7.4) was directly added to either K562 or A673 cells in media and mixed by pipetting 3 times. The plates were then incubated at room temperature with shaking/rocking for 20-50 minutes to allow for lysis to take place. After this time, the cell lysate plate was transferred to ice to set up for the RT-qPCR reactions. The lysates could also be frozen at −80° C. for later use. […]

SMN2 CJ mRNA = experiment: Gene panel canonical junction qPCR assay, SMN2; conditions: decrease in CJ mRNA levels, gene panel; read-out: SMN2 IC50
Method: as §1

Target C CJ mRNA = experiment: Gene panel canonical junction qPCR assay, Target C; conditions: decrease in CJ mRNA levels, gene panel; read-out: Target C IC50
Method: as §1

[1] = decrease in CJ mRNA (50% response), read-out: HTT CJ AC50
[2] = increase in AJ mRNA (50% response), read-out: HTT AJ AC50

Row | Structure (SMILES) | IC50 (HTT CJ mRNA) [µM] | AC50 (HTT mRNA; [1]) [µM] | AC50 (HTT mRNA; [2]) [µM] | IC50 (SMN2 CJ mRNA) [µM] | IC50 (Target C CJ mRNA) [µM]
1 | Cc1cc(-c2ccc3c(=O)n(C4CCNCC4)cnc3c2)cc2cn(C)nc12 [Compound 174, 7-(2,7-dimethyl-2H-indazol-5-yl)-3-(piperidin-4-yl)quinazolin-4(3H)-one] | 0.1 to 1 | 0.1 to 1 | 0.1 to 1 | < 0.1 | –
2 | Cc1cn2nc(-c3ccc4c(=O)n(C5CCOCC5)ncc4c3)cc(C)c2n1 [Compound 275] | > 10 | – | – | – | > 10
3 | Cc1cn2nc(-c3ccc4c(=O)n([C@H]5CCN[C@H](C)C5)ncc4c3)cc(C)c2n1 [Compound 273] | < 0.1 | < 0.1 | 0.1 to 1 | – | 0.1 to 1
4 | Cn1cc2cc(-n3cnc4cc(NC5CCNCC5)ccc4c3=O)ccc2n1 [Compound 162] | > 10 | > 10 | > 10 | > 10 | –
5 | Cc1cn2nc(-c3ccc4c(=O)n(C5CCNCC5)ncc4c3)cc(C)c2n1 [Compound 186, 6-[2,8-dimethylimidazo[1,2-b]pyridazin-6-yl]-2-(piperidin-4-yl)phthalazin-1-one] | – | < 0.1 | < 0.1 | – | –
6 | Cc1cn2cc(-c3ccc4c(=O)n(C5CCNCC5)ncc4c3)nc2c(C)n1 [Compound 258] | – | 1 to 10 | > 10 | – | –
7 | Cn1cc2cc(-n3cnc4cc(N5CCNCC5)ccc4c3=O)ccc2n1 [Compound 153, 3-(2-methyl-2H-indazol-5-yl)-7-(piperazin-1-yl)quinazolin-4(3H)-one] | > 10 | > 10 | > 10 | 1 to 10 | –
8 | Cc1cn2nc(-c3ccc4c(c3F)CCN(C3CCNCC3)C4=O)cc(C)c2n1 [Compound 188, 6-{2,8-dimethylimidazo[1,2-b]pyridazin-6-yl}-5-fluoro-2-(piperidin-4-yl)-3,4-dihydroisoquinolin-1-one] | – | 1 to 10 | 1 to 10 | – | –
9 | Cn1cc2cc(-n3cnc4cc(C5=CCNCC5)ccc4c3=O)ccc2n1 [Compound 158, 3-(2-methyl-2H-indazol-5-yl)-7-(1,2,3,6-tetrahydropyridin-4-yl)quinazolin-4(3H)-one] | > 10 | > 10 | > 10 | > 10 | –
10 | Cc1cc(-c2ccc3c(=O)n(C4CCN(C)CC4)cnc3n2)cc2cn(C)nc12 [Compound 173, 7-(2,7-dimethyl-2H-indazol-5-yl)-3-(1-methylpiperidin-4-yl)pyrido[2,3-d]pyrimidin-4(3H)-one] | > 10 | > 10 | > 10 | 1 to 10 | –
11 | Cc1cc(-c2ccc3c(=O)n(C4CCN(C)CC4)cnc3c2)cc2cn(C)nc12 [Compound 156] | 1 to 10 | 1 to 10 | 1 to 10 | 0.1 to 1 | –
12 | Cc1cn2nc(-c3ccc4c(c3)CCN(C3CCNCC3)C4=O)cc(C)c2n1 [Compound 185, 6-[2,8-dimethylimidazo [1,2-b]pyridazin-6-yl]-2-(piperidin-4-yl) -3,4-dihydroisoquinolin-1-one] | – | 0.1 to 1 | 1 to 10 | – | –
13 | CN1CC=C(c2ccc3c(=O)n(-c4ccc5nn(C)cc5c4)cnc3c2)CC1 [Compound 159, 7-(1-methyl-1,2,3,6-tetrahydropyridin-4-yl)-3-(2-methyl-2H-indazol-5-yl)quinazolin-4(3H)-one] | > 10 | > 10 | > 10 | > 10 | –
14 | Cc1cc(-c2ccc3c(=O)n(C4CC(C)(C)NC(C)(C)C4)cnc3c2)cc2cn(C)nc12 [Compound 157, 7-(2,7-dimethyl-2H-indazol-5-yl)-3-(2,2,6,6-tetramethylpiperidin-4-yl)quinazolin-4(3H)-one hydrochloride] | > 10 | > 10 | > 10 | 1 to 10 | –
15 | CC[C@@H]1C[C@@H](n2ncc3cc(-c4cc(C)c5nc(C)cn5n4)ccc3c2=O)CCN1 [Compound 305, 6-{2,8-dimethylimidazo[1,2-b]pyridazin-6-yl}-2-[(2R,4S)-2-ethylpiperidin-4-yl]phthalazin-1-one] | 0.1 to 1 | 0.1 to 1 | 1 to 10 | – | 0.1 to 1
16 | Cc1cc(-c2ccc3nc(N4CCN(C)CC4)[nH]c(=O)c3c2)cc2cn(C)nc12 [Compound 165, 6-(2,7-dimethyl-2H-indazol-5-yl)-2-(4-methylpiperazin-1-yl)quinazolin-4(3H)-one] | > 10 | > 10 | > 10 | 0.1 to 1 | –
